Laboratory results as given in ChEMBL document CHEMBL3885881, “DrugMatrix”.

Species: Rattus norvegicus
Assay: DrugMatrix - Regimen: Daily Repeat
Type: toxicity, organism-based, Sprague-Dawley
Set-up: regimen Daily Repeat, gender Male, age 6-8 weeks
Settings: in vivo, po, route oral GAVAGE, vehicle 100 % WATER; for ABSOLUTE BASOPHIL / ABSOLUTE EOSINOPHIL / ABSOLUTE LYMPHOCYTE / ABSOLUTE MONOCYTE / ABSOLUTE SEGMENTED NEUTROPHIL / BASOPHIL / EOSINOPHIL / ERYTHROCYTE COUNT / HEMATOCRIT / HEMOGLOBIN / LEUKOCYTE COUNT / LYMPHOCYTE / MEAN CORPUSCULAR HEMOGLOBIN / MEAN CORPUSCULAR HEMOGLOBIN CONCENTRATION / MEAN CORPUSCULAR VOLUME / MONOCYTE / NEUTROPHIL / NUCLEATED RED BLOOD CELLS / PLATELET COUNT: tissue Blood; for ALANINE AMINOTRANSFERASE / ALBUMIN / ALKALINE PHOSPHATASE / ASPARTATE AMINOTRANSFERASE / BLOOD UREA NITROGEN / CARBON DIOXIDE / CHLORIDE / CHOLESTEROL / CREATINE PHOSPHOKINASE / CREATININE / GLUCOSE / LACTATE DEHYDROGENASE / LIPASE / PHOSPHORUS / POTASSIUM / SODIUM / TOTAL BILIRUBIN / TOTAL PROTEIN / URIC ACID: tissue Plasma
[1] = 1 mg/kg, 120 h, dose level Low, time 5 day
[2] = 10 mg/kg, 72 h, dose level High, time 3 day
[3] = 10 mg/kg, 120 h, dose level High, time 5 day

CC[C@H](C)[C@H]1O[C@]2(C=C[C@@H]1C)C[C@@H]1C[C@@H](C/C=C(\C)[C@@H](O[C@H]3C[C@H](OC)[C@@H](O[C@H]4C[C@H](OC)[C@@H](O)[C@H](C)O4)[C@H](C)O3)[C@@H](C)/C=C/C=C3\CO[C@@H]4[C@H](O)C(C)=C[C@@H](C(=O)O1)[C@]34O)O2.CO[C@H]1C[C@H](O[C@H]2[C@H](C)O[C@@H](O[C@@H]3/C(C)=C/C[C@@H]4C[C@@H](C[C@]5(C=C[C@H](C)[C@@H](C(C)C)O5)O4)OC(=O)[C@@H]4C=C(C)[C@@H](O)[C@H]5OC/C(=C\C=C\[C@@H]3C)[C@]54O)C[C@@H]2OC)O[C@@H](C)[C@@H]1O [ABAMECTIN]
ABSOLUTE BASOPHIL [1]: 0 CELLS/uL
ABSOLUTE EOSINOPHIL [1]: 144.67 CELLS/uL
ABSOLUTE LYMPHOCYTE [1]: 15431.33 CELLS/uL
ABSOLUTE MONOCYTE [1]: 370 CELLS/uL
ABSOLUTE SEGMENTED NEUTROPHIL [1]: 1387.33 CELLS/uL
BASOPHIL [1]: 0%
EOSINOPHIL [1]: 0.67%
ERYTHROCYTE COUNT [1]: 5.65 x10E6/uL
HEMATOCRIT [1]: 33.97%
HEMOGLOBIN [1]: 13.77 G/DL
LEUKOCYTE COUNT [1]: 17.33 x10E3/uL
LYMPHOCYTE [1]: 89.67%
MEAN CORPUSCULAR HEMOGLOBIN [1]: 24.4 pg
MEAN CORPUSCULAR HEMOGLOBIN CONCENTRATION [1]: 40.53 G/DL
MEAN CORPUSCULAR VOLUME [1]: 60.13 fL
MONOCYTE [1]: 2%
NEUTROPHIL [1]: 7.67%
NUCLEATED RED BLOOD CELLS [1]: 0 /100WBC
PLATELET COUNT [1]: 1317.33 x10E3/uL
ALANINE AMINOTRANSFERASE [1]: 48.67 u/L
ALBUMIN [1]: 4.2 G/DL
ALKALINE PHOSPHATASE [1]: 323.67 u/L
ASPARTATE AMINOTRANSFERASE [1]: 72 u/L
BLOOD UREA NITROGEN [1]: 14.67 mg/dL
CARBON DIOXIDE [1]: 25 mmol/L
CHLORIDE [1]: 102 MEQ/L
CHOLESTEROL [1]: 70.33 mg/dL
CREATINE PHOSPHOKINASE [1]: 216.33 u/L
CREATININE [1]: 0.13 mg/dL
GLUCOSE [1]: 162.33 mg/dL
LACTATE DEHYDROGENASE [1]: 87.67 u/L
LIPASE [1]: 9 u/L
PHOSPHORUS [1]: 11.33 mg/dL
POTASSIUM [1]: 6.2 MEQ/L
SODIUM [1]: 144.03 MEQ/L
TOTAL BILIRUBIN [1]: 0.17 mg/dL
TOTAL PROTEIN [1]: 5.87 G/DL
URIC ACID [1]: 1.5 mg/dL
ABSOLUTE BASOPHIL [2]: 0 CELLS/uL
ABSOLUTE EOSINOPHIL [2]: 36.33 CELLS/uL
ABSOLUTE LYMPHOCYTE [2]: 12016 CELLS/uL
ABSOLUTE MONOCYTE [2]: 120 CELLS/uL
ABSOLUTE SEGMENTED NEUTROPHIL [2]: 861 CELLS/uL
BASOPHIL [2]: 0%
EOSINOPHIL [2]: 0.33%
ERYTHROCYTE COUNT [2]: 5.75 x10E6/uL
HEMATOCRIT [2]: 35.6%
HEMOGLOBIN [2]: 13.9 G/DL
LEUKOCYTE COUNT [2]: 13.03 x10E3/uL
LYMPHOCYTE [2]: 92.33%
MEAN CORPUSCULAR HEMOGLOBIN [2]: 24.2 pg
MEAN CORPUSCULAR HEMOGLOBIN CONCENTRATION [2]: 39.07 G/DL
MEAN CORPUSCULAR VOLUME [2]: 61.93 fL
MONOCYTE [2]: 1%
NEUTROPHIL [2]: 6.33%
NUCLEATED RED BLOOD CELLS [2]: 0 /100WBC
PLATELET COUNT [2]: 1234 x10E3/uL
ALANINE AMINOTRANSFERASE [2]: 46.33 u/L
ALBUMIN [2]: 4.23 G/DL
ALKALINE PHOSPHATASE [2]: 426 u/L
ASPARTATE AMINOTRANSFERASE [2]: 78.33 u/L
BLOOD UREA NITROGEN [2]: 14.67 mg/dL
CARBON DIOXIDE [2]: 25 mmol/L
CHLORIDE [2]: 99.67 MEQ/L
CHOLESTEROL [2]: 64 mg/dL
CREATINE PHOSPHOKINASE [2]: 208.33 u/L
CREATININE [2]: 0.18 mg/dL
GLUCOSE [2]: 136.33 mg/dL
LACTATE DEHYDROGENASE [2]: 150.33 u/L
LIPASE [2]: 11 u/L
PHOSPHORUS [2]: 11.37 mg/dL
POTASSIUM [2]: 6.65 MEQ/L
SODIUM [2]: 143.17 MEQ/L
TOTAL BILIRUBIN [2]: 0.17 mg/dL
TOTAL PROTEIN [2]: 5.87 G/DL
URIC ACID [2]: 1.33 mg/dL
ABSOLUTE BASOPHIL [3]: 0 CELLS/uL
ABSOLUTE EOSINOPHIL [3]: 0 CELLS/uL
ABSOLUTE LYMPHOCYTE [3]: 9787 CELLS/uL
ABSOLUTE MONOCYTE [3]: 273.67 CELLS/uL
ABSOLUTE SEGMENTED NEUTROPHIL [3]: 1239.33 CELLS/uL
BASOPHIL [3]: 0%
EOSINOPHIL [3]: 0%
ERYTHROCYTE COUNT [3]: 6.35 x10E6/uL
HEMATOCRIT [3]: 39.13%
HEMOGLOBIN [3]: 15.47 G/DL
LEUKOCYTE COUNT [3]: 11.3 x10E3/uL
LYMPHOCYTE [3]: 85.33%
MEAN CORPUSCULAR HEMOGLOBIN [3]: 24.43 pg
MEAN CORPUSCULAR HEMOGLOBIN CONCENTRATION [3]: 39.53 G/DL
MEAN CORPUSCULAR VOLUME [3]: 61.9 fL
MONOCYTE [3]: 2.67%
NEUTROPHIL [3]: 12%
NUCLEATED RED BLOOD CELLS [3]: 0.33 /100WBC
PLATELET COUNT [3]: 1492.67 x10E3/uL
ALANINE AMINOTRANSFERASE [3]: 38 u/L
ALBUMIN [3]: 4.63 G/DL
ALKALINE PHOSPHATASE [3]: 309 u/L
ASPARTATE AMINOTRANSFERASE [3]: 72.33 u/L
BLOOD UREA NITROGEN [3]: 17 mg/dL
CARBON DIOXIDE [3]: 27.33 mmol/L
CHLORIDE [3]: 98.67 MEQ/L
CHOLESTEROL [3]: 79.33 mg/dL
CREATINE PHOSPHOKINASE [3]: 356.67 u/L
CREATININE [3]: 0.14 mg/dL
GLUCOSE [3]: 153.33 mg/dL
LACTATE DEHYDROGENASE [3]: 446.33 u/L
LIPASE [3]: 8.67 u/L
PHOSPHORUS [3]: 10.47 mg/dL
POTASSIUM [3]: 6.1 MEQ/L
SODIUM [3]: 143.9 MEQ/L
TOTAL BILIRUBIN [3]: 0.13 mg/dL
TOTAL PROTEIN [3]: 6.7 G/DL
URIC ACID [3]: 1.5 mg/dL
